Results on 19 compounds are retold here after patent US10544130B2, “Metallo-beta-lactamase inhibitors” (priority 2015, dated 2020).

Molecules are shown by their SMILES. Read-outs that look alike come from different tables or passages of the source.

Data set [1] deals with Escherichia coli expressing NDM-1 (CLB30005, CLB30016). In kind it is cell-based. Conditions: with imipenem 1 μg/ml, 95% inhibition of bacterial growth. Here is the method: (§1) Antibiotic Potentiation Activity: Determination of Synergistic Concentration
(§2) The bacterial strains tested included the clinical strains Escherichia coli expressing NDM-1 (CLB30005, CLB30016), Serratia marcescens expressing IMP-1 (CL5741), and Klebsiella pneumoniae expressing VIM-1 (IHMA599644). Inhibitor activity was measured in the presence and absence of imipenem in a 384-well microplate.
(§3) The clinical strains CLB30016, CL5741 and IHMA599644 were grown on trypticase soy agar containing 5% sheep's blood. The bacteria on agar plates were incubated at 35° C. with humidity overnight. The following day, individual colonies from each clinical strain were picked and resuspended in 5 ml saline to attain an OD600 of 0.14, 0.11, 0.15 and 0.13, for CLB30016, CL5741 and IHMA599644, respectively. These were further diluted 1:100 into 1.1× CAMHB and used to inoculate the test wells as described below.
(§4) Imipenem in 10 mM 3-(N-morpholino)propanesulfonic acid (MOPS, pH 7) was stored in single use aliquots at −80° C. […] On the day of the assay, 4 μl of antibiotic was added to 45 ul of bacteria followed by 1 μl of test compound and mixed by pipetting and with an orbital shaker. The concentration of antibiotic used in the assay was 1 μg/ml. Microplates were covered and incubated at 35° C. for 22 hours to 24 hours. At the end of the incubation, absorbance was determined using a spectrophotometer.

Data set [2] deals with Serratia marcescens expressing IMP-1 (CL5741). The format is cell-based. Conditions: with imipenem 1 μg/ml; 95% inhibition of bacterial growth. Here is the method:
as §1, §2, §3, §4

Data set [3] relates to Pseudomonas aeruginosa PAO1 MB9798 (efflux+, IMP-1). Conditions: ratio MITC95 PA 9798/MITC95 PA 9799; imipenem at 2 μg/mL. The procedure, abridged:
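Isogenic PAO1 pair (efflux+ MB9798, efflux− MB9799, both IMP-1) tested by microbroth MIC with fixed imipenem and/or ceftazidime, usually at CLSI breakpoint, plus fixed class A/C inhibitor against AmpC. MBL inhibitor titrated; concentration restoring susceptibility recorded and fold difference between strains taken as efflux extent.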

As for `NCCNS(=O)(=O)c1ccc(-c2cccc3[nH]c([C@@H]4C[C@@H](O)CN4)nc23)c(-c2nn[nH]n2)c1S(N)(=O)=O` [Example 444, N1-(2-aminoethyl)-4-(2-((2S,4R)-4-hydroxypyrrolidin-2-yl)-1H-benzo[d]imidazol-4-yl)-3-(2H-tetrazol-5-yl)benzene-1,2-disulfonamide], the “Escherichia coli (NDM-1) MITC95” value in data set [1] was determined as 1.563 µM.

Turning to `C[C@H](CN)NS(=O)(=O)c1ccc(-c2cc(F)cc3[nH]c(N)nc23)c(-c2nn[nH]n2)c1S(N)(=O)=O` [Example 396, (R)-4-(2-amino-6-fluoro-1H-benzo[d]imidazol-4-yl)-N^1-(1-aminopropan-2-yl)-3-(2H-tetrazol-5-yl)benzene-1,2-disulfonamide], in data set [1], the “Escherichia coli (NDM-1) MITC95” value was 0.7813 µM.

In the case of `NCCNS(=O)(=O)c1ccc(-c2ccc3[nH]c(CN)nc3c2)c(-c2nn[nH]n2)c1S(N)(=O)=O` [Example 466, N1-(2-aminoethyl)-4-(2-(aminomethyl)-1H-benzo[d]imidazol-5-yl)-3-(2H-tetrazol-5-yl)benzene-1,2-disulfonamide], the “Escherichia coli (NDM-1) MITC95” value in data set [1] was found to be 0.7813 µM.

As to `NCC(CN)NS(=O)(=O)c1ccc(-c2cccc3sc(N)nc23)c(-c2nn[nH]n2)c1S(N)(=O)=O` [Example 436, 4-(2-aminobenzo[d]thiazol-4-yl)-N1-(1,3-diaminopropan-2-yl)-3-(2H-tetrazol-5-yl)benzene-1,2-disulfonamide], the “Escherichia coli (NDM-1) MITC95” value in data set [1] was 0.7813 µM.

Consider `NCc1nc2cc(-c3ccc(S(=O)(=O)NC[C@@H](O)CN)c(S(N)(=O)=O)c3-c3nn[nH]n3)ccc2[nH]1` [Example 465, (S)-N1-(3-amino-2-hydroxypropyl)-4-(2-(aminomethyl)-1H-benzo[d]imidazol-5-yl)-3-(2H-tetrazol-5-yl)benzene-1,2-disulfonamide], for which the “Escherichia coli (NDM-1) MITC95” value in data set [1] is 0.7813 µM.

For `C[C@@H](CCN)NS(=O)(=O)c1ccc(-c2ccc(N)nc2)c(-c2nn[nH]n2)c1S(N)(=O)=O` [Example 499, (5)-N1-(4-aminobutan-2-yl)-4-(6-aminopyridin-3-yl)-3-(1H-tetrazol-5-yl)benzene-1,2-disulfonamide], the “Escherichia coli (NDM-1) MITC95” value in data set [1] (CLB30016) was determined as 0.7813 µM.

In the case of `NCc1nc2cc(-c3ccc(S(=O)(=O)NC[C@@H](O)CN)c(S(N)(=O)=O)c3-c3nn[nH]n3)ccc2s1` [Example 473, (S)-N1-(3-amino-2-hydroxypropyl)-4-(2-(aminomethyl)benzo[d]thiazol-5-yl)-3-(2H-tetrazol-5-yl)benzene-1,2-disulfonamide], in data set [1], the “Escherichia coli (NDM-1) MITC95” value worked out at 0.7813 µM.

For the compound `NCCNS(=O)(=O)c1ccc(-c2cccc3[nH]c(C4CNC4)nc23)c(-c2nn[nH]n2)c1S(N)(=O)=O` [Example 443, N1-(2-aminoethyl)-4-(2-(azetidin-3-yl)-1H-benzo[d]imidazol-4-yl)-3-(2H-tetrazol-5-yl)benzene-1,2-disulfonamide], in data set [1], the “Escherichia coli (NDM-1) MITC95” value was found to be 0.7813 µM.

In the case of `NCc1nc2cc(-c3ccc(S(=O)(=O)N[C@@H](CN)CO)c(S(N)(=O)=O)c3-c3nn[nH]n3)ccc2[nH]1` [Example 474, (S)-N1-(1-amino-3-hydroxypropan-2-yl)-4-(2-(aminomethyl)-1H-benzo[d]imidazol-5-yl)-3-(2H-tetrazol-5-yl)benzene-1,2-disulfonamide], the “Escherichia coli (NDM-1) MITC95” value in data set [1] came to 0.7813 µM.

Regarding `NCc1nc2cc(-c3ccc(S(=O)(=O)N[C@@H](CN)CO)c(S(N)(=O)=O)c3-c3nn[nH]n3)ccc2s1` [Example 475, (S)-N1-(1-amino-3-hydroxypropan-2-yl)-4-(2-(aminomethyl)benzo[d]thiazol-5-yl)-3-(2H-tetrazol-5-yl)benzene-1,2-disulfonamide], in data set [1], the “Escherichia coli (NDM-1) MITC95” value turned out to be 0.7813 µM.

As to `NCCNc1cc(-c2ccc(S(=O)(=O)NCCO)c(S(N)(=O)=O)c2-c2nn[nH]n2)ccn1` [Example 457, 4-(2-((2-aminoethyl)amino)pyridin-4-yl)-N1-(2-hydroxyethyl)-3-(2H-tetrazol-5-yl)benzene-1,2-disulfonamide], the “Escherichia coli (NDM-1) MITC95” value in data set [1] was determined as 1.563 µM.

On to `C[N+]1(C)CC(NS(=O)(=O)c2ccc(-c3cccc4[nH]c(N)nc34)c(-c3nn[nH]n3)c2S(N)(=O)=O)C1.O=C([O-])O` [Example 245, 3-(4-(2-Amino-1H-benzo[d]imidazol-4-yl)-2-sulfamoyl-3-(2H-tetrazol-5-yl)phenylsulfonamido)-1,1-dimethylazetidin-1-ium hydrogencarbonate], for which the “Serratia marcescens (IMP-1) MITC95” value in data set [2] came to 1.563 µM. In addition, the Efflux ratio in data set [3] is given as 1.00.

For the compound `Nc1nc2c(-c3ccc(S(=O)(=O)NC[C@]4(N)CCNC4)c(S(N)(=O)=O)c3-c3nn[nH]n3)cccc2[nH]1` [Example 250, (S)-4-(2-amino-1H-benzo[d]imidazol-4-yl)-N1-((3-aminopyrrolidin-3-yl)methyl)-3-(2H-tetrazol-5-yl)benzene-1,2-disulfonamide], the “Serratia marcescens (IMP-1) MITC95” value in data set [2] was 0.7813 µM. For the same compound, the Efflux ratio in data set [3] worked out at 1.00.

Turning to `NCCNS(=O)(=O)c1ccc(-c2cccc3c2CCCN3)c(-c2nn[nH]n2)c1S(N)(=O)=O` [Example 455, N1-(2-Aminoethyl)-4-(1,2,3,4-tetrahydroquinolin-5-yl)-3-(2H-tetrazol-5-yl)benzene-1,2-disulfonamide], the “Escherichia coli (NDM-1) MITC95” value in data set [1] came out at 1.563 µM.

On to `NCCNS(=O)(=O)c1ccc(-c2cccc3[nH]c([C@H](N)CO)nc23)c(-c2nn[nH]n2)c1S(N)(=O)=O` [Example 330, (S)-4-(2-(1-amino-2-hydroxyethyl)-1H-benzo[d]imidazol-4-yl)-N1-(2-aminoethyl)-3-(2H-tetrazol-5-yl)benzene-1,2-disulfonamide], for which the “Serratia marcescens (IMP-1) MITC95” value in data set [2] was 1.563 µM. Also, the Efflux ratio in data set [3] amounted to 1.00.

On to `Nc1nc2c(-c3ccc(S(=O)(=O)NC[C@@H]4CCNC4)c(S(N)(=O)=O)c3-c3nn[nH]n3)cccc2[nH]1` [Example 263, (R)-4-(2-amino-1H-benzo[d]imidazol-4-yl)-N1-(pyrrolidin-3-ylmethyl)-3-(2H-tetrazol-5-yl)benzene-1,2-disulfonamide], for which the “Serratia marcescens (IMP-1) MITC95” value in data set [2] amounted to 0.7813 µM. The Efflux ratio in data set [3] is reported as 1.00.

As for `CC[C@H](CN)NS(=O)(=O)c1ccc(-c2cccc3[nH]c(N)nc23)c(-c2nn[nH]n2)c1S(N)(=O)=O` [Example 265, (R)-4-(2-amino-1H-benzo[d]imidazol-4-yl)-N1-(1-aminobutan-2-yl)-3-(2H-tetrazol-5-yl)benzene-1,2-disulfonamide], the “Serratia marcescens (IMP-1) MITC95” value in data set [2] was 0.7813 µM. For the same compound, the Efflux ratio in data set [3] was determined as 1.00.

On to `CN1CC(NS(=O)(=O)c2ccc(-c3cccc4[nH]c(N)nc34)c(-c3nn[nH]n3)c2S(N)(=O)=O)C1` [Example 256, 4-(2-amino-1H-benzo[d]imidazol-4-yl)-N1-(1-methylazetidin-3-yl)-3-(2H-tetrazol-5-yl)benzene-1,2-disulfonamide], for which the “Serratia marcescens (IMP-1) MITC95” value in data set [2] is 0.7813 µM. Further, the Efflux ratio in data set [3] was found to be 1.00.

`NCCNS(=O)(=O)c1ccc(-c2cccn3ccnc23)c(-c2nn[nH]n2)c1S(N)(=O)=O` [Example 361, N1-(2-aminoethyl)-4-(imidazo[1,2-a]pyridin-8-yl)-3-(2H-tetrazol-5-yl)benzene-1,2-disulfonamide]: the “Serratia marcescens (IMP-1) MITC95” value in data set [2] was 0.7813 µM. Further, in data set [3], the Efflux ratio stood at 1.00.
